According to patent US20240229043A1, “Methods and Compositions for Treating, Ameliorating, and/or Preventing Chronic Kidney Disease (CKD) and Complications thereof by Regulating DPEP1, CASP9, ACSS2 and/or FASN” (THE TRUSTEES OF THE UNIVERSITY OF PENNSYLVANIA, priority 2022, published 2024):
“Also recorded” adds a separate entry of the source.

How the values were obtained:
[1] = target: T1, FASN (Mus musculus, UniProt P19096); type: cell-based
Experimental: The NADPH/NADP+ ratio was calculated according to the manufacturer protocol (#G1009, Promega). Briefly, an equal number of cells were cultured in a 96-well format and starved overnight for TGF-beta 1 treatments. Next, the cells were lysed in 20% DTAB containing Basic solution for 10 min at RT. Samples were processed according to the protocol for measuring NADPH and NADP+ from the same well simultaneously. The absolute and relative NADPH/NADP+ values were calculated according to the manufacturer's formula.
Reduced and oxidized glutathione levels were measured according to the Glutathione Colorimetric Detection Kit (#EIAGSHC, Thermo Scientific) from the same well after completion of all treatments.
(§1) Primary cells were cultured on microscopic cover glass overnight until they reached 70% confluency. Cells were incubated in a 5 μM MitoSox (#M36008, Thermo Scientific) solution for 10 min in incubator and processed for imaging and quantifications. Cells were also incubated in 10 μM JC-1 (#T3168, Thermo Scientific) for 10 min and then proceeded with imaging and quantifications.

[2] = target: T1, FASN; type: in vivo
Experimental: (§2) Animal studies were approved by the Institutional Animal Care and Use Committee (IACUC) of the University of Pennsylvania. Mice were housed in pathogen free conditions with 12 h dark and light cycle in a temperature- and humidity-controlled environment (23±1). The mice were fed ad libitum with water and rodent standard chow diet. 6- to 7-week-old male and female C57BL/6J mice were used in the study. Mice were randomly assigned to experimental groups for all experiments including drug efficacy studies. To induce kidney injury, the present study employed two widely used kidney disease models including unilateral ureteral obstruction (UUO) and folic acid nephropathy (FAN). UUO surgery experiments were conducted on male and female mice. Briefly, UUO was performed by ligating the right kidney ureter, and the left kidney served as a sham operated kidney. Post-surgical procedures were followed according to the IACUC guidelines. For FAN models, 300 mM sodium bicarbonate (NaHCO3) solution was first made to solubilize folic acid (FA) and injected into male mice (FA 250 mg/kg i.p at single dose). Mice were sacrificed 7 days following injection or surgery. For the drug injection studies, mice were first injected one day before the UUO surgery.
(§3) Approximately 20-30 mg of kidney tissue was homogenized in SDS-blue loading buffer (#7722, CST) containing 42 mM DTT. Samples were loaded onto the SDS-PAGE gels and run at 100v for 1 h 40 min at RT in Tris-Glycine-SDS buffer. The proteins were transferred onto a PVDF membrane. Membranes were blocked with 3% non-fat dry milk powder in tris-buffer saline containing Tween-20 (TBST) for 30 min at RT. The blots were then incubated with primary antibody overnight at 4OC. After primary antibody incubation, the blots were washed three times with TBST, IRdye-conjugated secondary antibodies were probed for 1 h at RT. Finally, the blots were washed in TBST for three minutes each, 10 min at RT, and scanned at 600, 700, and 800 excitation wavelengths in Li-COR imager (Odysseyφ XF), Image Studio software. The images were quantified for relative abundance in Image J software.
(§4) The tissues were fixed in formalin, dehydrated by an ethanol gradient (30%, 50%, 75% and 95%) and then submitted to the histology Core in 100% ethanol. Once the tissue was sectioned, H&E and Sirius red staining was performed. Images were acquired in Olympus 5000 microscope with Cell Sense software. Percentage of relative fibrosis was quantified in image J.
(§5) For the inhibitor studies, littermate mice were randomly assigned to receive either FASNall or ACSS2i. A single dose of 1 mg/ml FASNall was given via i.p injection at 10 mg/kg body weight one day prior to the UUO surgery. Mice were sacrificed 3 days after UUO surgery, and their kidneys were harvested. ACSS2i was injected at 20 mg/kg body weight via i.p injection one day prior to UUO surgery, followed by daily injections for 5 days. Mice sacrificed on the 7th day after UUO surgery.

[3] = target: T1, FASN
[4] = target: T2, ACSS2 (Mus musculus, UniProt Q9QXG4); experiment: UUO mouse model of kidney fibrosis with ACSS2i; type: in vivo, mice
T2 construct: from tissue; host or cells: living C57BL/6J mice; read-outs in kidney
T2 sequence (Q9QXG4 whole entry): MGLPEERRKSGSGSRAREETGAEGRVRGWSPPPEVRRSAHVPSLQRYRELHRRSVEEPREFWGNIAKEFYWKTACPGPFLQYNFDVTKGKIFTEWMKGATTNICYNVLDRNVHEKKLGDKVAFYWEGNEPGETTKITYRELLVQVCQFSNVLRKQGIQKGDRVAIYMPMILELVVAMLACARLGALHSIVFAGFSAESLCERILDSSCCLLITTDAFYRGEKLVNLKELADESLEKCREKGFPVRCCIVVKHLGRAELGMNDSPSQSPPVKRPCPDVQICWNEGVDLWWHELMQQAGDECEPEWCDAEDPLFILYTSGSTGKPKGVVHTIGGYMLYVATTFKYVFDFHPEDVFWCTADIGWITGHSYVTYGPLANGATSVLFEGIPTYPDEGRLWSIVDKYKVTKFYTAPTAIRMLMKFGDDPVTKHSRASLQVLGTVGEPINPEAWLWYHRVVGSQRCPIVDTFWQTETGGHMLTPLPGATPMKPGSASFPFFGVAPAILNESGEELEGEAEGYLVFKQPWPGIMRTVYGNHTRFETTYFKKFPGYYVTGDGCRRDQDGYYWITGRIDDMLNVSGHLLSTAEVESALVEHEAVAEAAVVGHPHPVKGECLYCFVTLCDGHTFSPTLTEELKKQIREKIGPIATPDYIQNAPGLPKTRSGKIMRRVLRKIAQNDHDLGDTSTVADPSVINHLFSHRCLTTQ
Experimental: as §2, §3, §4, §5

[5] = target: ACSS2 (Homo sapiens, UniProt Q9NR19); details: cell and animal models; cited from earlier work
Chain of ACSS2 (Homo sapiens, UniProt Q9NR19) (Q9NR19 whole entry, species assumed): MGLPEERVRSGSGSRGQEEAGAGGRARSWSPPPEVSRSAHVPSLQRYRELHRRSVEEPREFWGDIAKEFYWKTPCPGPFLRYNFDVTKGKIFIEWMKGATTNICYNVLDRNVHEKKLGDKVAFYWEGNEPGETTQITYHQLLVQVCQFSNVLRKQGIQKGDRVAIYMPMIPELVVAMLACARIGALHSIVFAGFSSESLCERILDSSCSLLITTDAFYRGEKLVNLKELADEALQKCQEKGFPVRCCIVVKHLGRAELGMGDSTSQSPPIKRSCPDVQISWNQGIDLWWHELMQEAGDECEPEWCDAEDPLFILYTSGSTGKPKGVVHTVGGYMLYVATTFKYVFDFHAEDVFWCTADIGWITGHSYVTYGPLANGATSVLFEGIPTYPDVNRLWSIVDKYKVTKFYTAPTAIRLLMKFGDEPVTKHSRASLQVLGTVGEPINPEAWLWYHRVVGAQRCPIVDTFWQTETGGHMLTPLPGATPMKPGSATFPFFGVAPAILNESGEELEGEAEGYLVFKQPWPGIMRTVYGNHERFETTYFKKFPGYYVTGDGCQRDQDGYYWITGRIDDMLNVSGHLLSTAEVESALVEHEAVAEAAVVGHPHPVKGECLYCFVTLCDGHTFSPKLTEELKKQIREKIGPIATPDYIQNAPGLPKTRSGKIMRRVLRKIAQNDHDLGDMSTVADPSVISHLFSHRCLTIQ

[6] = system: primary TECs; experiment: Cisplatin-treated primary kidney tubule cells from wild-type and Chmp1a+/- mice; type: cell-based
Experimental: For primary culture of renal tubule cells, kidneys were collected from 2- to 4-week-old male mice. Cells were isolated by 2 mg/ml collagenase I (Gibco #17018-029) digestion for 30 min at 37° C. with gentle stirring and filtered through a 100-μm mesh. The cell suspension was cultured in RPMI 1640 (Corning #10-040-CM) supplement with 10% FBS (Atlanta Biologicals #S11950), 20 ng/ml EGF (Peprotech #AF-100-15), 1×ITS (Gibco #51500-056), and 1% penicillin-streptomycin (Corning #30-002-CI) at 5% CO2 and 37° C.
Primary cultured renal tubule cells or NRK52E cells were incubated with 1 μM transferrin (Thermo Fisher #T13342) for 4 h, or 5 μM mitoSOX (ThermoFisher #M36008) for 10 min, or 2 μM BODIPY™ 581/591 C11 (Thermo Fisher #D3861) for 0.5 h, or 20 ng/ml dextran conjugated to 488 (Thermo Fisher #D22910) for 2 h, at 5% CO2 and 37° C., respectively. After washing with PBS, cells were imaged directly under the confocal or regular fluorescence microscope.
Mouse primary tubular epithelial cells from wild-type, mutant mice or NRK52E cells were plated in 96-well plate. Transfection of NRK52E cells with siRNA was carried out as described above. […] Cells were harvested and stained with trypan blue (Thermo Fisher #T10282) to visualize dead cells. Cell counts were analyzed in Countess Auto Counter (Invitrogen, C10227). LDH release was quantified using CytoTox 96 Non-Radioactive Cytotoxicity Assay (Promega #G1780). Medium was collected in triplicates, spun down, and incubated in a 96-well plate with the CytoTox reagent for 20-30 min. After adding the stop solution, the absorbance signal was measured at 490 nm in a plate reader. The ratio between dead cell and live cell was calculated through the measurement using MultiTox-Fluor Multiplex Cytotoxicity Assay (Promega #9201). Cells were incubated in assay buffer containing live cell substrate GF-AFC and dead cell substrate bis-AAF-R110 for 30 min at 37° C. The plate fluorescence was measured using a plate reader as following: viability: excitation ˜400 nm; emission ˜505 nm. cytotoxicity: excitation ˜485 nm; emission ˜520 nm.

[7] = system: mitochondrial ROS; experiment: MitoTempo in TGF-beta 1 treated primary tubule cells; type: cell-based, mice
Experimental: as §1
Cells cultured as above and pretreated with 100 μM MitoTempo (#SML0737, Sigma) for 2 h, followed by TGF-beta 1 treatments while MitoTempo was still present.

T1 sequence (P19096 whole entry): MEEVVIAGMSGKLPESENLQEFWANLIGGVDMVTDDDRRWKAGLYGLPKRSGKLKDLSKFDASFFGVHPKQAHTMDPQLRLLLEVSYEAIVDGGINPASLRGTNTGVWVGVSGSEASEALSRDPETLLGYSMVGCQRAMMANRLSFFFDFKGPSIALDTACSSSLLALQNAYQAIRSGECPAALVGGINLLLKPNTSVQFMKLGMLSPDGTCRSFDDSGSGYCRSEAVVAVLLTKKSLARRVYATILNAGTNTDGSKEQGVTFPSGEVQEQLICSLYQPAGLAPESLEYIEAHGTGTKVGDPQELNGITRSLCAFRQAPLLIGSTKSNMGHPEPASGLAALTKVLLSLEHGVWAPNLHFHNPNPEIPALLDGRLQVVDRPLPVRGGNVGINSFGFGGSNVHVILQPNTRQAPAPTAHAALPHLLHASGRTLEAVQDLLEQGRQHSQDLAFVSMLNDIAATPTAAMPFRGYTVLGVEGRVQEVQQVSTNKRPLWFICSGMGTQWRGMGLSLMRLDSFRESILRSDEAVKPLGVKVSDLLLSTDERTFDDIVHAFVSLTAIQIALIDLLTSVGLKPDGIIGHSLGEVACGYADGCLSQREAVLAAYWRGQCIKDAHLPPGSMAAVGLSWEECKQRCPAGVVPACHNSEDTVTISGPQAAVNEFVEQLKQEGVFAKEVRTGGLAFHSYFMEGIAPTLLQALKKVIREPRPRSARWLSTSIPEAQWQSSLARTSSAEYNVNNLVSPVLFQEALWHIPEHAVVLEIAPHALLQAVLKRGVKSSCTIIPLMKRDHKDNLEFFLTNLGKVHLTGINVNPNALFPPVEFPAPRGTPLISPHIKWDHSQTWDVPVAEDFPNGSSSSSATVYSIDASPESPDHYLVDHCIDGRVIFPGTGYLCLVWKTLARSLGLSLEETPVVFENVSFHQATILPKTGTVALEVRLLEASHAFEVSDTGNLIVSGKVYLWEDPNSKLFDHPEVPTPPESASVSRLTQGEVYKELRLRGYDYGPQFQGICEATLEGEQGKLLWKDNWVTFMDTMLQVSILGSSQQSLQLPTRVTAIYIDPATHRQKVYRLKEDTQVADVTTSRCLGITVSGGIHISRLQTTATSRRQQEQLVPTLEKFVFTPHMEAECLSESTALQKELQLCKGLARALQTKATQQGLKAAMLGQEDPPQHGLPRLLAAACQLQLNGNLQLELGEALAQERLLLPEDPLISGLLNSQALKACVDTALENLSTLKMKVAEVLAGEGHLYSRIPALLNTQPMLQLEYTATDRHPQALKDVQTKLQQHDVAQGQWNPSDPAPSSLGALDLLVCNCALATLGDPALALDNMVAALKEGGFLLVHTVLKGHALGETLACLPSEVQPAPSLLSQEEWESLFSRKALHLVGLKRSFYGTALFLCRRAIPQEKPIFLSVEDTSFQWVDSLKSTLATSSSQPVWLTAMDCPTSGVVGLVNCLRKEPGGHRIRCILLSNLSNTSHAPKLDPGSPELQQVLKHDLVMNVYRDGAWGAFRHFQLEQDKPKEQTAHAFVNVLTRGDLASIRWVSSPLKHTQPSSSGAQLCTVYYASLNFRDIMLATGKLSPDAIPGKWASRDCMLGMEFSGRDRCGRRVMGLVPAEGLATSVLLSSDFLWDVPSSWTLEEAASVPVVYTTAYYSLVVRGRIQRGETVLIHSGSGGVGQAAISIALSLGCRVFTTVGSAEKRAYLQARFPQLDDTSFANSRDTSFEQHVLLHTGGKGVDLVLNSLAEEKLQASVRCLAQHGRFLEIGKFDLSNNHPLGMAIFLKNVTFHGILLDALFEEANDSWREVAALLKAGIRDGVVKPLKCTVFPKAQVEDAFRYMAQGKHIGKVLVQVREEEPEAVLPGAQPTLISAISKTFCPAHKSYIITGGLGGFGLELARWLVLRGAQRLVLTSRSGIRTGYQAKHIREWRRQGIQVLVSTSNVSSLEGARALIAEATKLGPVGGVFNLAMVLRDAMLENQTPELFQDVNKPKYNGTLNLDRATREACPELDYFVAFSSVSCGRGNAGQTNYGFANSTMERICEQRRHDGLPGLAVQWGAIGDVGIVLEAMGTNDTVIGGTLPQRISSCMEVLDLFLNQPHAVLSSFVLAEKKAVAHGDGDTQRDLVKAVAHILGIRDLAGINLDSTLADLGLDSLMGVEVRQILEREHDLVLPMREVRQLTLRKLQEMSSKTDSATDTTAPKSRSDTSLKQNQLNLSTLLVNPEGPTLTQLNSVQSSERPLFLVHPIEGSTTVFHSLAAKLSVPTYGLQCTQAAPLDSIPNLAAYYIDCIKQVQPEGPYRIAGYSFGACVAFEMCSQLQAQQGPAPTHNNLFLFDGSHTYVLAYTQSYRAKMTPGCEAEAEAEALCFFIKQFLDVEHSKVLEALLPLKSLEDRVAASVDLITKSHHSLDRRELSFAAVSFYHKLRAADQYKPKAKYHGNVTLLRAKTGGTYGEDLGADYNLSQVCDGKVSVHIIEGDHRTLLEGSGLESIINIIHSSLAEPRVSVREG

Cc1sc2ncnc(NC3CCN(Cc4ccccc4)C3)c2c1C (stereo not drawn) [FASNall]
less negative mitochondrial membrane potential (monomeric JC-1 accumulation) ([1]; TGF-beta 1 treated WT cells): attenuated this effect | GSH levels and relative GSH/GSSH ratio ([1]; TGF-beta 1 treated cells): preserved | NADPH/NADP+ ratio ([1]; TGF-beta 1 treated tubule cells): preserved | Protein levels of FN1 and α-SMA ([2]; UUO kidneys): suppressed; also recorded: lower | TGs (TAGs) levels in kidney ([2]; UUO kidneys): prevented; also recorded: lower | fibrosis markers Acta2, Col1a1, Col3a, and Fn1 gene expression ([2]; UUO kidneys): lower | gene expression of NLRP3, IL-1B, IL18, caspase1 and Gsdmd ([2]; UUO kidneys): lower | lipid accumulation (Oil red O staining) ([2]; UUO kidneys): attenuated; also recorded: lower | tissue scarring (Sirius red staining) ([2]; UUO kidneys vs vehicle): less | tubule atrophy and fibrosis (histological analysis) ([2]; UUO kidneys vs vehicle): lower | Protein levels of NLRP3, caspase1, cleaved caspase1 (p20), F-GSDMD, and N-GSDMD ([2]; UUO kidneys vs vehicle treated): lower | Fasn and Plin2 expression ([2]; UUO kidneys, single dose 10 mg/kg i.p., 10 mg/kg): significantly prevented; also recorded: ameliorated | kidney injury and fibrosis / kidney disease development ([2]; mice): prevented kidney injury and fibrosis development; also recorded: protect mice from kidney disease development | cell death (cell viability) [3]: did not increase cell death

COCCNC(=O)Nc1ccc2nc(-c3cccs3)c(-c3cccs3)nc2c1 [ACSS2i]
fibrosis and tubule atrophy (H&E, Sirius red quantification) ([4]; UUO): markedly lower | Gene and protein expression of fibrosis markers (Acta2, Col1a1, Col3a, and Fn1) ([4]; UUO kidney injury): reduced fibrosis; also recorded: protective effect | gene expression of NLRP3, IL-1B, IL18, caspase1 and Gsdmd ([4]; UUO kidneys): lower | lipid accumulation (Fasn, Plin2 expression, TG accumulation) ([4]; UUO kidneys): inhibited | Protein levels of NLRP3, caspase1, cleaved caspase1 (p20), F-GSDMD, and N-GSDMD ([4]; UUO kidneys vs vehicle treated): lower | kidney disease development ([4]; mice): protect mice from kidney disease development | collagen fibers staining (Sirius Red) ([4]; vs vehicle alone): reduced | UUO induced kidney injury (H&E analysis) ([4]; vs vehicle injected mice): prevented | obesity-induced multiple myeloma growth [5]: reduce

CC1(C)CC(NC(=O)C[P+](c2ccccc2)(c2ccccc2)c2ccccc2)CC(C)(C)N1[O] [Mito-TEMPO]
LDH release induced by cisplatin ([6]; Chmp1a+/- primary TECs): markedly lowered | lipid peroxidation (C11 BODIPY 581/591) induced by cisplatin ([6]; primary TECs from wild-type or Chmp1a+/- mice): markedly lowered | inflammasome activation (IL-1B, IL18, and caspase1 increase) ([7]; following TGF-beta 1 treatment, MitoTempo 100 μM): efficiently lowered | TGF-beta 1 induced expression of fibrosis markers / fibrotic genes ([7]; primary TECs): lowered; also recorded: diminished
